≈ marks a conversion by molar mass, not a printed value. Calls of active or inactive are those of the source. No cut-off for these calls is given here.

Assay [1] deals with 1A9. Kind of assay: Tested in vitro for cytotoxic activity against Human ovarian cancer (IA9) cell line. The format is functional.
In assay [2] the test system is KB. Briefly: Tested in vitro for cytotoxic activity against epidermoid carcinoma of the nasopharynx(KB) cell line. The format is functional, Homo sapiens.
The test system of assay [3] is MCF7. Briefly: Tested in vitro for cytotoxic activity against breast cancer (MCF-7) cell line. The format is functional, Homo sapiens.
Assay [4] has as its system SK-MEL-2. Kind of assay: Tested in vitro for cytotoxic activity against melanoma (SKMEL-2) cell line. The format is functional, Homo sapiens.
Assay [5] concerns U-87 MG. Kind of assay: Tested in vitro for cytotoxic activity against glioblastoma (U-87-MG) cell line. The format is functional, Homo sapiens, U-87MG ATCC.
Assay [6] has as its system KB. Briefly: Tested in vitro for cytotoxic activity against P-glycoprotein-expressing epidermoid carcinoma of the nasopharynx(KB-VIN) cell line. The format is functional, Homo sapiens.
For assay [7], the system named is A549. The format is functional, Homo sapiens.
Description: Tested in vitro for cytotoxic activity against lung carcinoma (A-549) cell line
In assay [8] the test system is HCT-8. Briefly: Tested in vitro for cytotoxic activity against ileocecal carcinoma (HCT-8) cell line. The format is functional, Homo sapiens.
Assay [9] has as its system HOS. Kind of assay: Tested in vitro for cytotoxic activity against bone(HOS) cell line. Format: functional, Homo sapiens.
In assay [10] the test system is PC-3. Kind of assay: Tested in vitro for cytotoxic activity against prostate cancer (PC3) cell line. Format: functional, Homo sapiens.
The target of assay [11] is Tubulin (Bos taurus, UniProt Q6B856+Q862L2+Q862F3). Briefly: Inhibition of bovine tubulin polymerization. Format: functional.
In assay [12] the test system is U-87 MG. Kind of assay: Tested in vitro for cytotoxic activity against glioblastoma (U-87-MG) cell line; NA means Not active. Format: functional, cell-based. The note with it: Homo sapiens; U-87MG ATCC.

As for `COc1cccc(-c2nc(O)c3cc(N4CCOCC4)ccc3n2)c1`, the ED50 in assay [1] was 3.8 µg/mL (≈ 11.3 µM); in assay [2], 8.2 µg/mL (≈ 24.3 µM); in [3], 4.5 µg/mL (≈ 13.3 µM); in assay [4], 4.8 µg/mL (≈ 14.2 µM); in assay [5], 20 µg/mL (≈ 59.3 µM); in assay [6], 3.7 µg/mL (≈ 11 µM).

With `COc1cccc(-c2nc(O)c3cc(Cl)ccc3n2)c1`, the ED50 in assay [7] was 3.2 µg/mL (≈ 11.2 µM); in [8], 6 µg/mL (≈ 20.9 µM); in assay [9] it was 17 µg/mL (≈ 59.3 µM); in assay [1], above 20 µg/mL; in assay [10], 4.5 µg/mL (≈ 15.7 µM); in assay [4], 4.8 µg/mL (≈ 16.7 µM). The ED50 in assay [5] is 10 µg/mL (≈ 34.9 µM); in [6], 6.5 µg/mL (≈ 22.7 µM).

Turning to `COc1cccc(-c2nc(O)c3cc(N(C)C)ccc3n2)c1`, the ED50 was 14 µg/mL (≈ 47.4 µM) in assay [7]; above 20 µg/mL in assay [9]; 0.49 µg/mL (≈ 1.66 µM) in assay [1]; 10 µg/mL (≈ 33.9 µM) in assay [2]; 0.85 µg/mL (≈ 2.88 µM) in assay [3]; 15 µg/mL (≈ 50.8 µM) in [10]. The ED50 was 19 µg/mL (≈ 64.3 µM) in assay [4], above 20 µg/mL in [5] and 0.42 µg/mL (≈ 1.42 µM) in assay [6].

With `COc1cccc(-c2nc(O)c3cc(N4CCCCC4)ccc3n2)c1`, the ED50 came to 2.8 µg/mL (≈ 8.35 µM) in assay [7]; 4.3 µg/mL (≈ 12.8 µM) in assay [8]; 0.9 µg/mL (≈ 2.68 µM) in [1]; 10 µg/mL (≈ 29.8 µM) in assay [2]; 8.5 µg/mL (≈ 25.3 µM) in [3]; 10 µg/mL (≈ 29.8 µM) in assay [10]. Further, the ED50 turned out to be 4.5 µg/mL (≈ 13.4 µM) in [4], 9 µg/mL (≈ 26.8 µM) in assay [5] and 0.6 µg/mL (≈ 1.79 µM) in [6].

Turning to `COc1cccc(-c2cc(O)c3cc(N4CCCC4)ccc3n2)c1`, the IC50 – broadly, the concentration that inhibits the measured activity by half – in assay [11] was determined as 0.32 µM.

As for `COc1cccc(-c2nc(O)c3cc(OC)c(OC)cc3n2)c1`, the ED50 is above 20 µg/mL in [7]; above 20 µg/mL in [8]; above 20 µg/mL in assay [9]; 12 µg/mL (≈ 38.4 µM) in assay [3]; 15 µg/mL (≈ 48 µM) in assay [10]; 18 µg/mL (≈ 57.6 µM) in [4]. Further, the ED50 in [5] was above 20 µg/mL.

As for `COc1ccc(-c2nc(O)c3ccccc3n2)cc1OC`, the ED50 in assay [7], in assay [8], in assay [9], in [1], in assay [2] and in [3] was above 20 µg/mL each time. Moreover, the ED50 in assay [10], in assay [4] and in assay [6] was above 20 µg/mL in each case. Further, the ED50 entry in assay [12] was “inactive”.

Take `COc1ccc(OC)c(-c2nc(O)c3ccccc3n2)c1`: the ED50 in [7], in [8], in assay [9], in [1], in assay [2] and in assay [3] was above 20 µg/mL each time. In addition, the ED50 in [10], in assay [4] and in [6] was above 20 µg/mL each time. Moreover, the ED50 result in [12] was “inactive”.

As for `COc1cccc(-c2nc(O)c3cc(OC)ccc3n2)c1`, the ED50 was above 20 µg/mL in assay [9]; 3.4 µg/mL (≈ 12 µM) in assay [1]; 8 µg/mL (≈ 28.3 µM) in [3]; above 20 µg/mL in [10]; above 20 µg/mL in [4]; above 20 µg/mL in assay [5]. In assay [6], the ED50 came out at 3.5 µg/mL (≈ 12.4 µM).

In the case of `COc1cccc(-c2nc(O)c3cc(N4CCC(C)CC4)ccc3n2)c1`, the ED50 in assay [7] is 6 µg/mL (≈ 17.2 µM); in assay [8], 4 µg/mL (≈ 11.4 µM); in assay [1] it was 0.8 µg/mL (≈ 2.29 µM); in assay [3], 10 µg/mL (≈ 28.6 µM); in [4], 7.5 µg/mL (≈ 21.5 µM); in assay [6], 2.5 µg/mL (≈ 7.15 µM).

Consider `COc1cc(OC)cc(C2NC(=O)c3ccccc3N2)c1` (stereo not drawn), for which the ED50 in assay [7] is 5 µg/mL (≈ 17.6 µM); in assay [8], 3 µg/mL (≈ 10.6 µM); in assay [9] it was above 20 µg/mL; in assay [2] it was 4.7 µg/mL (≈ 16.5 µM); in [3], above 20 µg/mL; in assay [10] it was above 20 µg/mL. The figures for the ED50 in assay [4], in assay [5] and in assay [6] were 4.4 µg/mL (≈ 15.5 µM), above 20 µg/mL and 1.6 µg/mL (≈ 5.63 µM), respectively. This compound displayed an IC50 in assay [11] of 12 µM.

The values are drawn from ChEMBL document CHEMBL1133524 (J Med Chem, 2000).
